{"source": "patent US12612411B1", "about": "“Imidazopyrazine derivatives, process for preparation thereof, and their uses as luciferins” (INSTITUT PASTEUR, priority 2017, dated 2026)", "key": {"[1]": {"tested_on": "protein chimeras fused to the nanoKAZ in transiently transfected HEK and Jurkat cell lines, and primary human T-cells", "assay": "In cellulo bioluminescence imaging with a light microscope", "format": "cell-based", "details": "images acquired for one second from live cells, FIG. 5", "excerpt": "FIG. 5 compares expression and location of protein chimeras fused to the nanoKAZ in transiently transfected HEK and Jurkat cell lines, and primary human T-cells: the cytokine receptor IL7Rα:nanoKAZ at the membrane (top), the enconsin tubulin binding protein EMTB:nanoKAZ associated with microtubules (middle), the transcription factor STAT5a:nanoKAZ dense throughout the cytoplasm and faint in the nucleus (bottom).\nThe acquisition of bioluminescence using a light microscope provides a quantitative measurement of light emission cell by cell, the main advantage. This is meaningful especially when the transfection efficiency is low in the case of nanoKAZ expression provided by plasmids. […] The higher is the bioluminescence efficiency, the lower is the exposure time and the lower is the sensitivity required for the detector or camera. NanoKAZ with developed substrates such as Q-3 or Q-12 opens the bioluminescence imaging to standard light microscope. The lower the exposure time, the higher the resolution, which is impeded by the motion of living cells. Any gain in light emission enhances the quality of images. Luciferase reporters or fragments can be fused to proteins targeting the cell surface, cytoplasm, organelles, nucleus or exosomes and can be carried by virus, host-infecting cells or agents, biologic complexes, beads or any particles. […]"}, "[2]": {"tested_on": "IL7:nanoKAZ", "assay": "In vivo bioluminescence imaging (Ivis) after injection of IL7:nanoKAZ and substrate", "details": "IL7:nanoKAZ and substrate injected in mice", "excerpt": "(§1) Furimazine (Q-1) and derivatives have emission spectra centred on 460 nm but present large peaks bleeding beyond 580 nm. The bioluminescence obtained with the analogue Q-3 provides photons with 10% of them having a wavelength beyond 560 nm up to 600 nm. This wide spectra emission toward red is thus allowing the use of the nanok AZ/furimazine for in vivo imaging. The light emission beyond 580 is thousands times higher than red emitting firefly or beetle luciferases. IL7:nanoKAZ and analogue Q-3 were injected in mice."}, "[3]": {"biological_target": "T1, nanoKAZ (Oplophorus gracilirostris, UniProt Q9GV45, A31E/A60N/A81I/F95D/I117V/K70R/L54V/L99Q/M102K/N193R/P142E/Q151K/Q38R/Q45L/V71I/Y165I)", "T1 construct": "luciferase catalytic domain (nanoKAZ, 19 kDa) from the Oplophorus-derived luciferase", "T1 sequence (Q9GV45 other isoform, or with tags, fused parts or gaps with the stated changes)": "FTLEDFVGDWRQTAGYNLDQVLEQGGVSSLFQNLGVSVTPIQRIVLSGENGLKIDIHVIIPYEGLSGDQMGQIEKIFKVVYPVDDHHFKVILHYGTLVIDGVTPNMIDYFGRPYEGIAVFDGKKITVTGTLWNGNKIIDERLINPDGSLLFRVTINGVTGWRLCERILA", "assay": "Bioluminescence emission spectra", "format": "biochemical", "excerpt": "as §1"}, "[4]": {"biological_target": "T2, nanoKAZ luciferase (Oplophorus gracilirostris, UniProt Q9GV45, A31E/A60N/A81I/F95D/I117V/K70R/L54V/L99Q/M102K/N193R/P142E/Q151K/Q38R/Q45L/V71I/Y165I)", "T2 construct": "luciferase catalytic domain (nanoKAZ, 19 kDa) from the Oplophorus-derived luciferase; host or cells: cell-free: 1-Step Human Coupled IVT Kit, pT7CFE1-based vector", "T2 sequence (Q9GV45 other isoform, or with tags, fused parts or gaps with the stated changes)": "as above", "assay": "In vitro bioluminescence screening of imidazo[1,2-a]pyrazin-3(7H)-ones with nanoKAZ expressed in vitro (96-well luminometer, 2 h kinetic)", "format": "biochemical", "details": "Table 1; furimazine = 1", "in_short": "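nanoKAZ made by human coupled IVT, diluted 400-fold then 1/20 in DPBS + 0.1% Tween 20; luciferins generated in situ by acid hydrolysis of O-acetyl precursors (DMSO/acidic ethanol, 50 °C, 2 h). Luminescence followed kinetically for 2 h; max intensity, signal half-life and 10-min and 2-h AUC normalized to furimazine.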"}, "[5]": {"biological_target": "T1, nanoKAZ", "assay": "Michaelis-Menten parameters of nanoKAZ from Lineweaver-Burk representation", "format": "biochemical", "details": "extrapolated from Lineweaver-Burk, constant enzyme concentration", "excerpt": "The two dotted lines (linear regression) are converging to the same intercept with the x-axis (−1/Km) and different intercepts with the y-axis (1/Vmax). The equations of the two linear regressions are indicated and the corresponding correlation factors (R^2) with the experimental data are reported.\nConsidering the hypothesis of a Michaelis-Menten mechanism for the nanoKAZ, the Km and Vmax were extrapolated from the Lineweaver-Burk representation of the enzyme activity catalyzing either Q-1 or Q-3. […] The data have been fitted with linear regression with satisfying high correlation factors (R). The Km are the same for both substrates (Km=2 μM) whereas the Vmax is 3-times lower for Q-1 (0.6·10^6 RLU/sec) than for Q-3 (2.0·10^6 RLU/sec)."}, "[6]": {"biological_target": "T1, nanoKAZ", "assay": "Dynamic range of nanoKAZ bioluminescence versus serial enzyme dilutions", "format": "biochemical", "details": "constant volume 100 μL, constant substrate concentration", "experimental": "FIG. 3 illustrates dynamic range (relative units (RLU) versus serial dilutions) of nanok AZ, which was plotted using the imidazo[1,2-a]pyrazin-3(7H)-one Q-3.\nAs depicted in FIG. 3, the dynamic range of nanoKAZ was assessed using luciferin Q-3. The enzyme was diluted three by three times and the bioluminescence has been measured on a constant volume (100 (L) and at constant concentration of the substrate. The bioluminescence is linear with the enzyme concentration over 5 orders of magnitude, overwhelming the detection system. This range can be increase by two orders of magnitude by decreasing 2 times the volume for high enzyme concentration and by increasing two times the volume for low enzyme concentration."}}, "data": [{"smiles": "Cc1ccc(Cc2nc3c(Cc4ccccc4)[nH]c(-c4ccccc4)cn-3c2=O)o1", "note": "[Q-3, 8-benzyl-2-((5-methylfuran-2-yl)methyl)-6-phenylimidazo[1,2-a]pyrazin-3(7H)-one]", "values": [{"measurement": "light emission in live-cell images compared with Q-1", "setting": "[1]", "value": "gain of light emission"}, {"measurement": "in vivo bioluminescence image quality", "setting": "[2]", "value": "Quantitative images of high quality were acquired"}, {"measurement": "photons having a wavelength beyond 560 nm up to 600 nm", "setting": "[3]", "value": 10, "unit": "%"}, {"measurement": "V1: maximum intensity, normalized using furimazine (Q-1) as a reference", "setting": "[4]", "value": 2.7}, {"measurement": "V3: area under the curve for ten minutes, normalized using furimazine (Q-1) as a reference", "setting": "[4]", "value": 2.39}, {"measurement": "V4: area under the curve for two hours, normalized using furimazine (Q-1) as a reference", "setting": "[4]", "value": 1.3}, {"measurement": "Vmax", "setting": "[5]", "value": "2.0·10^6 RLU/sec"}, {"measurement": "range over which bioluminescence is linear with the enzyme concentration", "setting": "[6]", "value": "5 orders of magnitude"}]}]}
